Data on one molecule can be found in patent US11446276B2, “Extreme low dose THC as a therapeutic and prophylactic agent for Alzheimer's disease” (University of South Florida, priority 2015, dated 2022).

“Also recorded” adds a separate entry of the source.

Series [1] concerns Aβ in N2a/AβPPswe cells. In words: Sandwich ELISA of Aβ in N2a/AβPPswe cells treated with THC and CB1 inhibitor rimonabant. The format is cell-based, human. To be noted: 25 nM THC with no rimonabant; 36 hour and later time points; FIG. 2. As to the method: The mechanism of action was elucidated for THC's effect on Aβ levels using a sandwich ELISA assay. N2a/AβPPswe cells, as discussed in Example 1, were suspended to 2×10^5/mL, 3 mL plated into each well, and grown in DMEM with 10% fetal bovine serum, 100 U/mL penicillin, 100 μg/mL streptomycin, and 400 μg/mL G418 (Invitrogen), at 37° C. in the presence of 5% CO2. N2a/AβPPswe cells were subcultured using trypsin, and pipetted numerous times to ensure cells were separated into individual cells. Cells were counted, as provided in Example 1, and proper amount of cell medium and fresh medium was added into new flasks according to the ratio of dilution. Pipetting was performed 10 times to homogenize cells, and 3 mL of cells were seeded into medium into each 6 well plate. When one pipette was used up, the cells were mixed in the flask before using them for the next pipette. Compounds were suspended in DMSO.
12 hours after cells were plated, cells were treated with 25 nM of Δ9-THC (T4764-1ML Sigma Aldrich, Merck KGaA; Darmstadt, Germany), with the known inhibitor of the CB1 receptor, rimonabant, at 0 μM, 100 μM, 10 μM, 1 μM, or 0.1 μM rimonabant. Untreated N2a/AβPPswe cells were used as a control. Treatment was then washed out, i.e. the medium was then removed from the cultures and 3 mL of media containing the treatment compounds were added. Cells were collected at 12 hours afterwards, 48 hours afterwards, 60 hours afterwards, and 72 hours afterwards, and ELISA was conducted on the cells.
ELISA assay was performed on the cells using 50 μL of goat anti-PWT1-42 antibody solution, which was incubated overnight, followed by a 1-hour incubation with 0.1% I-block buffer. The tissue culture supernatant was diluted 1:10 with diluent buffer containing a protease inhibitor. Standards were prepared by serial dilution, as provided in Example 1. The plate was washed and 50 μL of sample or standard was added with triplication. 50 μL of both Biosource 40/42 (HS) (primary antibody) Aβ and a standard solution was added to each well and incubated for 3 hours followed by 5× wash with PBST. […]

Series [2] deals with CB1 receptor. In words: RT-PCR for CB1 receptor expression level. The conditions noted are these: cells treated with low doses of THC.
In series [3] the target is Aβ peptide amino acids 1-10, the major B-cell epitope (Homo sapiens, UniProt P05067). The series is described as follows: ELISA for THC interference with the major B cell epitope of Aβ. The format is binding. To be noted: each increasing concentration of THC; FIG. 3B. On the procedure: In untreated samples, Aβ peptide increased in intensity for the first 20 minutes, followed by a plateauing of fluorescence at around 30 minutes, at which time the intensity remained constant for the duration of the study. […] Therefore, THC's direct interaction with the Aβ peptide will not dampen an immune response to clear the Aβ peptide. Further analysis with western blot was performed measuring the anti-aggregation properties of THC with Aβ peptide.
Sequence of Aβ peptide amino acids 1-10, the major B-cell epitope (P05067 672-711 limits assumed): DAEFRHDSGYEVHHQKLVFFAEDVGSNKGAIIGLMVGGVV

The subject of series [4] is mitochondrial function. To be noted: THC 10 to 50 micromolar; cited from earlier work.

In the case of `CCCCCc1cc(O)c2c(c1)OC(C)(C)[C@@H]1CCC(C)=C[C@@H]21` [THC, Δ9-tetrahydrocannabinol], the Aβ levels entry in series [1] was “significantly lower Aβ; also recorded: marked decreases”. In addition, in series [2], the “CB1 receptor expression level (RT-PCR)” value is given as “no significant upregulation”. Besides, the “Interference with the major B cell epitope of Aβ (ELISA absorbance)” value in series [3] is reported as “No identified interference; also recorded: no significant difference in absorbance”. In series [4], the Cell death entry is “induces cell death” and the Mitochondrial function entry is recorded as “inhibitor of mitochondrial function”.
